As a reminder, the Km is the concentration of substrate that gives half-maximal velocity.

Assay type in all cases: biochemical, Marchantia paleacea
What all share (conditions): ATP, MgCl2, 200 mM Tris-HCl (assay: 5 mM ATP, 300 μM CoA, 5 mM MgCl2, pH 7.5, 30°C)

For experiment [1], the system named is T1, Mp4CL1.
T1 construct: expressed in E. coli BL21(DE3), purified; from transcriptome SRP078650
The experiment is described as follows: UV absorbance of CoA ester formation at […] nm.

The subject of experiment [2] is T1, Mp4CL1. The experiment is described as follows: UV absorbance of CoA ester formation at […] nm. This is another data set of the same source.
Experiment [3] relates to T1, Mp4CL1. The experiment can be described thus: HPLC quantification of CoA ester with calibration curve. From the text:
HPLC quantification of CoA ester with calibration curve on Mp4CL1

Experiment [4] concerns T1, Mp4CL1. The experiment can be described thus: UV absorbance of CoA ester formation at […] nm. The source holds these as a separate data set.

Take `O=C(O)/C=C/c1ccc(O)cc1` [p-coumaric acid]: the Km with Mp4CL1 [1] came to 94 ± 30.9 µM.
Regarding `COc1cc(/C=C/C(=O)O)ccc1O` [ferulic acid], the Km in the experiment on Mp4CL1 [2] was determined as 414 ± 95.7 µM.
`O=C(O)/C=C/c1ccc(O)c(O)c1` [caffeic acid]: the Km with Mp4CL1 [2] is 113 ± 24.3 µM.
Regarding `O=C(O)CCc1ccc(O)cc1` [dihydro-p-coumaric acid], in the experiment on Mp4CL1 [3], the Km was determined as 289 ± 36.5 µM.
Turning to `O=C(O)/C=C/c1ccccc1` [cinnamic acid], the Km in the experiment with Mp4CL1 [4] turned out to be 115 ± 16.6 µM.

The record behind these values is paper PMC10773943, “Molecular cloning and functional analysis of 4-coumarate: CoA ligases from Marchantia paleacea and their roles in lignin and flavanone biosynthesis” (PLOS ONE, 2024).
